The record followed here is EP4682146A1, “COMPOSITION INCLUDING NOVEL PYRIDOINDOLE DERIVATIVE COMPOUND AS ACTIVE INGREDIENT FOR PREVENTION OR TREATMENT OF NEURODEGENERATIVE DISEASES” (Neurotarge Co., Ltd., priority 2023, dated 2024).

pIC50: −log10 of the molar value.

The experiment deals with T1, Tau-Synaptogyrin3 interaction (Homo sapiens, UniProt O43761+P10636).
T1 construct: expressed in transfected cells
In words: Cell-based split luciferase (NanoBit) protein complementary assay for Tau-Synaptogyrin3 interaction in stable cell line HEK293T-TK252-1E2. Particulars: HEK293T-TK252-1E2 cells, 48 hrs compound treatment, L/F value (luciferase activity/fluorescent intensity) compared to DMSO control. The method, then:
Live cell luciferase assay: Live cell luciferase activity was measured using NanoGlo® Live Cell Assay System (Cat# N2012. Promega, WI, USA), according to manufacturer's instruction. All microplate-based measurement was performed with BioTek Synergy H1 (Agilent. CA, USA).
For producing HEK293T-TK252 stable cell line for screening, BglII-linearized pTK252 was transfected to HEK293T cells. After 24 hrs transfection, the transfected cells were cultured in the culture media containing 1 µg/ml puromycin (10 mM in DMSO, Cat# J61278/ Alfa Aesar. ThermoFisher Korea, Seoul, Korea) for 9 days. Regular media change was performed in every 3 days with fresh puromycin of indicating concentration during the whole selection period. The selected cells were trypsinized and diluted to 5 cells/ml and seeded to 4x 96 well cell culture plates (100 µl/well), and cultured with the cell culture media containing 1 µg/ml puromycin for 11 days. 18 wells that contained only GFP-positive cells were selected for expansion, and cultured with the cell culture media containing 0.1-0.2 µg/ml puromycin for 14 days. 10 clones were discarded during the expansion due to emerging of non-GFP cells, and 8 clones were validated. The selected clone (1E2) was cultured with the cell culture media containing 0.5 µg/ml puromycin for further experiments.
3 µmol of 1,728 compounds were purchased from Otava Chemicals MB (Vilniaus, Lithuania), dissolved into 300 µl DMSO (10 mM) and stored at -80°C. 4x10^4 HEK293T-TK252-1E2 cells were seeded with 100 µl of the cell culture media into 96 white well cell culture plates (Cat# 30196. SPL, Seoul, Korea), 48 hrs prior to compound treatment. For 10 µM compound treatment, 10 mM compound stock was diluted to 50 µM with the cell culture media, and 25 µl of the diluted compound was added to the designated wells of the 96 well plates. For dose-response experiments, the amount of compounds for dilution was adjusted to fit the volume indicated above. After 48 hrs compound treatment, the cells were washed once with OptiMEM and live cell luciferase activity, fluorescent intensity and fluorescence area scan was measured.
1,728 compounds were treated at 10 µM to HEK293T-TK252-1E2 cells and incubated for 48 hrs. […] Single wash step with culture media without FBS was included before measurement to discard dead cells and to remove FBS that affects luciferase assay. […] Fluorescent intensity was taken for normalization, which is expected to be proportion to the cell number at the measuring point. L/F value which is luciferase activity normalized with fluorescent intensity (L/F = Luciferase activity/ Fluorescent intensity) was calculated for all measurements and compared to L/F value of DMSO controls to calculated the size of inhibitory effect. […] Fluorescence area scan (FA) performed right after luciferase activity and fluorescent intensity measurement, to validate total remaining fluorescent cells in a well as a proxy to the cellular toxicity. FA value was in proportion to WST assay results (data not shown), and average CV of triplicates of all measurements was 0.04.
61 compounds were further tested for dose-response profile, based on inhibitory effect that was measured by L/F value (<60%) and FA-based cell viability (>90%) at 10 µM compared to DMSO control. 10 compounds were considered as hit compounds through three times of reproduction.

T1 sequence (P10636 1-441 isoform P10636-8): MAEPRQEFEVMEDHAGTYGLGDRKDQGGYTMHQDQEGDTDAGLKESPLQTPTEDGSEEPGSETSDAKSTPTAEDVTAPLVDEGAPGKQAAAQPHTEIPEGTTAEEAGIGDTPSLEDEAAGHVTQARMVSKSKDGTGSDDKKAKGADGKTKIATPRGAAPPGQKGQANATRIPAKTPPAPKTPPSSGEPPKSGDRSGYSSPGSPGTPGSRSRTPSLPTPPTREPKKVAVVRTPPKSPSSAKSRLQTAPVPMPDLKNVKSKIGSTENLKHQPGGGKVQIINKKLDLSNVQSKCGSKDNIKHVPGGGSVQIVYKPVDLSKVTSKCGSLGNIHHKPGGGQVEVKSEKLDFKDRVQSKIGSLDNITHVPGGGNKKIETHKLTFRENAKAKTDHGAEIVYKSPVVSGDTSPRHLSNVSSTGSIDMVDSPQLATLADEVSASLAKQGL
T1 sequence (O43761 whole entry): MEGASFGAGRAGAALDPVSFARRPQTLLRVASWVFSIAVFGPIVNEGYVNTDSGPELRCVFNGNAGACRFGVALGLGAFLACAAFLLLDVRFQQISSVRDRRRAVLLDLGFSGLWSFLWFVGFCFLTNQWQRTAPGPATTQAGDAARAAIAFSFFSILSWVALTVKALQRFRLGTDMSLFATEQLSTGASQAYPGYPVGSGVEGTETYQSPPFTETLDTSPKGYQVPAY

For orientation: pIC50 means the negative decadic logarithm of the IC50, by convention in mol/L. `O=S(=O)(c1cccnc1)N1CCc2[nH]c3cc(-c4ccccc4)ccc3c2C1` [Formula 34, 7-phenyl-2-(pyridin-3-ylsulfonyl)-2,3,4,5-tetrahydro-1H-pyrido[4,3-b]indole]: the pIC50 was 4.92 to 5.52.

In the case of `O=C(c1cccnc1)N1CCc2[nH]c3cc(-c4ccccc4)ccc3c2C1` [Formula 35, (7-phenyl-1,3,4,5-tetrahydro-2H-pyrido[4,3-b]indol-2-yl)(pyridin-3-yl)methanone], the pIC50 is 4.92 to 5.52.

Consider `Cc1ccc(-c2ccc3[nH]c4c(c3c2)CN(C(=O)C2CCCCC2)CC4)cc1` [Formula 36, Cyclohexyl(8-(p-tolyl)-1,3,4,5-tetrahydro-2H-pyrido[4,3-b]indol-2-yl)methanone], for which the pIC50 is 4.92 to 5.52.

As for `Cc1ccc(C(=O)N2CCc3[nH]c4ccc(-c5ccc(C)cc5)cc4c3C2)cc1` [Formula 37, p-Tolyl(8-(p-Tolyl)-1,3,4,5-tetrahydro-2H-pyrido[4,3-b]indol-2-yl)methanone], the pIC50 is over 5.52.

Turning to `Cc1ccc(-c2ccc3[nH]c4c(c3c2)CN(C(=O)c2cccc(C)c2)CC4)cc1` [Formula 38, m-Tolyl(8-(p-Tolyl)-1,3,4,5-tetrahydro-2H-pyrido[4,3-b]indol-2-yl)methanone], the pIC50 was 4.60 to 4.92.

As to `COc1ccc(C(=O)N2CCc3[nH]c4ccc(-c5ccc(C)cc5)cc4c3C2)cc1` [Formula 39, (4-methoxyphenyl)(8-(p-tolyl)-1,3,4,5-tetrahydro-2H-pyrido[4,3-b]indol-2-yl)methanone], the pIC50 is 4.92 to 5.52.

Regarding `Cc1ccc(-c2ccc3[nH]c4c(c3c2)CN(C(=O)c2ccc(C)nc2)CC4)cc1` [Formula 40, (6-methylpyridin-3-yl)(8-(p-tolyl)-1,3,4,5-tetrahydro-2H-pyrido[4,3-b]indol-2-yl)methanone], the pIC50 was over 5.52.

With `Cc1ccc(-c2ccc3[nH]c4c(c3c2)CN(C(=O)c2ccnc(C)c2)CC4)cc1` [Formula 41, (2-methylpyridin-4-yl)(8-(p-tolyl)-1,3,4,5-tetrahydro-2H-pyrido[4,3-b]indol-2-yl)methanone], the negative logarithm of the IC50 (pIC50) was 4.92 to 5.52.

With `O=C(c1ccccc1)N1CCc2[nH]c3ccc(-c4cccnc4)cc3c2C1` [Formula 42, Phenyl(8-(pyridin-3-yl)-1,3,4,5-tetrahydro-2H-pyrido[4,3-b]indol-2-yl)methanone], the negative logarithm of the IC50 (pIC50) is 4.60 to 4.92.

As to `Cc1ccc(-c2ccc3c(c2)c2c(n3C)CCN(C(=O)c3ccccc3)C2)cc1` [Formula 43, (5-methyl-8-(p-tolyl)-1,3,4,5-tetrahydro-2H-pyrido[4,3-b]indol-2-yl)(phenyl)methanone], the negative-log IC50 (pIC50) was 4.92 to 5.52.

Consider `Cc1ccc(-c2ccc3c(c2)c2c(n3C)CCN(C(=O)c3cccnc3)C2)cc1` [Formula 44, (5-methyl-8-(p-tolyl)-1,3,4,5-tetrahydro-2H-pyrido[4,3-b]indol-2-yl)(pyridin-3-yl)methanone], for which the pIC50 is over 5.52.

For the compound `CCn1c2c(c3cc(-c4ccc(C)cc4)ccc31)CN(C(=O)c1ccccc1)CC2` [Formula 45, (5-ethyl-8-(p-tolyl)-1,3,4,5-tetrahydro-2H-pyrido[4,3-b]indol-2-yl)(phenyl)methanone], the negative logarithm of the IC50 (pIC50) is 4.92 to 5.52.

With `CCn1c2c(c3cc(-c4ccc(C)cc4)ccc31)CN(C(=O)c1cccnc1)CC2` [Formula 46, (5-ethyl-8-(p-tolyl)-1,3,4,5-tetrahydro-2H-pyrido[4,3-b]indol-2-yl)(pyridin-3-yl)methanone], the pIC50 was 4.92 to 5.52.

For `Cc1ccc(-c2ccc3[nH]c4c(c3c2)CN(C(=O)c2ccccc2)CC4)cn1` [Formula 47, (8-(6-methylpyridin-3-yl)-1,3,4,5-tetrahydro-2H-pyrido[4,3-b]indol-2-yl)(phenyl)methanone], the pIC50 is 4.92 to 5.52.

As for `Cc1ccc(-c2ccc3[nH]c4c(c3c2)CN(C(=O)c2cccnc2)CC4)cn1` [Formula 48, (8-(6-methylpyridin-3-yl)-1,3,4,5-tetrahydro-2H-pyrido[4,3-b]indol-2-yl)(pyridin-3-yl)methanone], the negative logarithm of the IC50 (pIC50) is 4.60 to 4.92.

Regarding `Cc1ccc(C(=O)N2CCc3[nH]c4ccc(-c5ccc(C)nc5)cc4c3C2)cn1` [Formula 49, (6-methylpyridin-3-yl)(8-(6-methylpyridin-3-yl)-1,3,4,5-tetrahydro-2H-pyrido[4,3-b]indol-2-yl)methanone], the negative logarithm of the IC50 (pIC50) is 4.60 to 4.92.

With `N#Cc1ccc(-c2ccc3[nH]c4c(c3c2)CN(C(=O)c2ccccc2)CC4)cc1` [Formula 50], the pIC50 was over 5.52.

With `N#Cc1ccc(-c2ccc3[nH]c4c(c3c2)CN(C(=O)c2cccnc2)CC4)cc1` [Formula 51], the negative-log IC50 (pIC50) is 4.92 to 5.52.

On to `Cc1ccc(C(=O)N2CCc3[nH]c4ccc(-c5ccc(C#N)cc5)cc4c3C2)cc1` [Formula 52], for which the negative-log IC50 (pIC50) was over 5.52.

`Cc1cccc(C(=O)N2CCc3[nH]c4ccc(-c5ccc(C#N)cc5)cc4c3C2)c1` [Formula 53]: the negative-log IC50 (pIC50) is 4.92 to 5.52.

In the case of `Cc1ccc(C(=O)N2CCc3[nH]c4ccc(-c5ccc(C#N)cc5)cc4c3C2)cn1` [Formula 54], the negative logarithm of the IC50 (pIC50) is 4.92 to 5.52.

Regarding `N#Cc1ccc(-c2ccc3[nH]c4c(c3c2)CN(C(=O)c2cccc(C#N)c2)CC4)cc1` [Formula 55], the pIC50 was 4.60 to 4.92.

For `Cc1ccc(C(=O)N2CCc3[nH]c4ccc(-c5cccc(C#N)c5)cc4c3C2)cc1` [Formula 56, 3-(2-(4-Methylbenzoyl)-2,3,4,5-tetrahydro-1H-pyrido[4,3-b]indol-8-yl)benzonitrile], the negative logarithm of the IC50 (pIC50) is 4.92 to 5.52.

With `Cc1ccc(C(=O)N2CCc3[nH]c4ccc(-c5cccc(C#N)c5)cc4c3C2)cn1` [Formula 57, 3-(2-(6-Methylnicotinoyl)-2,3,4,5-tetrahydro-1H-pyrido[4,3-b]indol-8-yl)benzonitrile], the pIC50 is 4.92 to 5.52.

As for `N#Cc1cccc(-c2ccc3[nH]c4c(c3c2)CN(C(=O)c2ccccc2)CC4)c1` [Formula 58, 3-(2-benzoyl-2,3,4,5-tetrahydro-1H-pyrido[4,3-b]indol-8-yl)benzonitrile], the negative logarithm of the IC50 (pIC50) was 4.92 to 5.52.

For `Cc1ccc(C(=O)N2CCc3[nH]c4ccc(-c5ccccc5C#N)cc4c3C2)cc1` [Formula 59, 2-(2-(4-Methylbenzoyl)-2,3,4,5-tetrahydro-1H-pyrido[4,3-b]indol-8-yl)benzonitrile], the negative logarithm of the IC50 (pIC50) is 4.92 to 5.52.

For `Cc1ccc(C(=O)N2CCc3[nH]c4ccc(-c5ccccc5C#N)cc4c3C2)cn1` [Formula 60, 2-(2-(6-Methylnicotinoyl)-2,3,4,5-tetrahydro-1H-pyrido[4,3-b]indol-8-yl)benzonitrile], the negative-log IC50 (pIC50) was 4.92 to 5.52.

With `N#Cc1ccccc1-c1ccc2[nH]c3c(c2c1)CN(C(=O)c1ccccc1)CC3` [Formula 61, 2-(2-benzoyl-2,3,4,5-tetrahydro-1H-pyrido[4,3-b]indol-8-yl)benzonitrile], the pIC50 is 4.92 to 5.52.

For the compound `COc1ccc(-c2ccc3[nH]c4c(c3c2)CN(C(=O)c2ccccc2)CC4)cc1` [Formula 62, (8-(4-Methoxyphenyl)-1,3,4,5-tetrahydro-2H-pyrido[4,3-b]indol-2-yl)(phenyl)methanone], the pIC50 is 4.92 to 5.52.

In the case of `COc1ccc(-c2ccc3[nH]c4c(c3c2)CN(C(=O)c2cccnc2)CC4)cc1` [Formula 63, (8-(4-Methoxyphenyl)-1,3,4,5-tetrahydro-2H-pyrido[4,3-b]indol-2-yl)(pyridin-3-yl)methanone], the pIC50 is over 5.52.

For `O=C(c1ccccc1)N1CCc2[nH]c3ccc(-c4ccc(F)cc4)cc3c2C1` [Formula 64, (8-(4-fluorophenyl)-1,3,4,5-tetrahydro-2H-pyrido[4,3-b]indol-2-yl)(phenyl)methanone], the negative-log IC50 (pIC50) is over 5.52.

`O=C(c1cccnc1)N1CCc2[nH]c3ccc(-c4ccc(F)cc4)cc3c2C1` [Formula 65, (8-(4-fluorophenyl)-1,3,4,5-tetrahydro-2H-pyrido[4,3-b]indol-2-yl)(pyridin-3-yl)methanone]: the pIC50 is over 5.52.

For the compound `O=C(c1ccccc1)N1CCc2[nH]c3ccc(-c4ccc(C5CCCCC5)cc4)cc3c2C1` [Formula 66, (8-(4-Cyclohexylphenyl)-1,3,4,5-tetrahydro-2H-pyrido[4,3-b]indol-2-yl)(phenyl)methanone], the pIC50 was 4.60 to 4.92.
